Converted amounts (≈) assume the structure as drawn. Like-named read-outs stand apart in the source and are kept apart here.
Tests used:
[1] = Microsomal stability (intrinsic clearance), mouse liver microsomes; type: in vitro ADME; design: microsomal CLint: dose or concentration left out as unconfirmed; conditions: for microsomal CLint: mouse, liver microsomes, pH 7.4, mouse liver microsomes
Text: (§1) A microsomal stability assay is used to measure in vitro clearance (Clint). The assay involves measuring the rate of disappearance of a compound due to its intrinsic attitude to be metabolized (“intrinsic” meaning that the disappearance is not affected by other properties like permeability, binding etc. that play a role when quantifying in vivo clearance). The microsomal stability (intrinsic clearance, Clint) and thus metabolic stability is generally given as μl/min/mg protein. It can be visualized as the volume of solution that 1 mg of microsomes is able to clear of the compound in one minute.
(§2) A Tecan Genesis workstation (RSP 150/8) was used for to perform the microsomal incubations. Analysis was carried out using a Waters ACQUITY UPLC system coupled to an ABSciex API3000 mass spectrometer. Data analysis was performed using Assay Explorer (Symyx).
(§3) Mobile phases: A=0.1% formic acid in water; B=acetonitrile
(§4) Flow rate: 0.750 mL/min; Detection: ESI, MRM; Injection: 10 μL; Column temperature: 50° C.
(§5) Potassium phosphate buffer: 0.05 M potassium phosphate buffer pH 7.4 containing 1 mM MgCl2 NADPH (nicotinamide adenine dinucleotide phosphate): 22.5 mg NADPH-Na4 in 1.8 ml potassium phosphate buffer Acetonitrile: 50 Vol % acetonitrile (1 volume acetonitrile, 1 volume water) DMSO: 20 Vol % DMSO in water Stock solution of 20 mg/ml human or mouse liver microsomes (protein)/ml in phosphate buffer Stock solution of 10 mM compound in 100% DMSO

[2] = Microsomal stability (intrinsic clearance), human liver microsomes; type: in vitro ADME; design: microsomal CLint: dose or concentration left out as unconfirmed; conditions: for microsomal CLint: human, liver microsomes, pH 7.4, human liver microsomes
Text: as §1, §2, §3, §4, §5

[3] = molecular target: T1, Human recombinant His-tagged PFKFB3 (Homo sapiens, UniProt Q16875); assay: PFKFB3 IC50 determination assay (modified ADP-Glo in vitro kinase assay); type: biochemical; conditions: ATP 20 μM, fructose-6-phosphate 2 μM, 2 h, rt
T1 construct: His; made in house
T1 sequence (Q16875 whole entry): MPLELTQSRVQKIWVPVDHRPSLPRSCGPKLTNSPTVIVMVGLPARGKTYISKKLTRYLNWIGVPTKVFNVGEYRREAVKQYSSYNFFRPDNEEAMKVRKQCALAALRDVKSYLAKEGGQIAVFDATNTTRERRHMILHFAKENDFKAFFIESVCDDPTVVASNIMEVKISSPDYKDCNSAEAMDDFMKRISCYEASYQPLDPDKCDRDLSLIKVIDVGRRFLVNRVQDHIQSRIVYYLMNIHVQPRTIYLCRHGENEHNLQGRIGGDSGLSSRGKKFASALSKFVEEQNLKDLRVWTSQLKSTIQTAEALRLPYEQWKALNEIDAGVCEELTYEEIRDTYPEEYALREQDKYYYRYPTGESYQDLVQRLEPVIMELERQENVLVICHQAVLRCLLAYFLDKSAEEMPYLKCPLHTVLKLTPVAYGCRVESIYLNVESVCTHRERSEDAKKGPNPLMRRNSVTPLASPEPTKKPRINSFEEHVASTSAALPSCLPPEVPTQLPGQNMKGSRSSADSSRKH
Experimental: In vitro kinase assay used to determine IC50 values for tested inhibitors is based on a modified ADP-Glo™ system (Promega) and consists of two parts:
1. Kinase reaction—performed in optimized conditions. At this step PFKFB3 phosphorylates its substrate fructose-6-phosphate using ATP as a source of phosphate to produce fructose-2,6-bisphosphate and ADP. Reaction is performed at Km values for ATP and substrate using optimized buffer composition and time of the reaction. Human recombinant His-tagged PFKFB3 (PFKFB3 BATCH II SEC) with confirmed activity is produced and purified in-house. 2. Detection of ADP as a product of the reaction using ADP-Glo™ system. This part is conducted by using the commercially available kit ADP-Glo™ Kinase Assay (Promega, cat. No# V9103) according to manufacturer's instruction, modified by 5× dilutions of assay reagents (both ADP-Glo™ Reagent and Kinase Detection Solution). Reproducibility and reliability of this modification is confirmed in an optimization process.
Test compounds are dissolved in DMSO and then transferred to the V-bottom 96-well plate. For IC50 determination ten 10× serial dilutions starting from 100 μM are prepared.
Two mixes are prepared on ice: Mix 1—containing appropriate kinase amount in 2× reaction buffer (100 mM TRIS pH 8.0) and Mix 2—containing 2.31× concentrated substrate (Fructose-6-phosphate) and ATP in MilliQ water. 15 μL per well of Mix 1 is transferred to assay wells of 96-well white plate. Next, 2 μl of 15× concentrated test compound in DMSO is added to Mix 1 for 20 min pre-incubation, followed by addition of Mix 2 (13 μl/well). Total reaction volume is 30 μL per well. Samples are tested in duplicates. Final concentration of DMSO in the reaction is 6.7%. Conditions needed for performing PFKFB3 (PFKFB3 BATCH II SEC) in vitro kinase assay are given below:
This protocol is based on Technical Bulletin, ADP-Glo™ Kinase Assay (Promega) and is adapted to 96-well plate containing 30 μL reaction mixture:
30 μL of 5× diluted ADP-Glo™ Reagent is added to each well of 96-well plate containing 30 μL of reaction mixture. The plate is incubated for 90 minutes on a shaker at rt. 60 μL of 5× diluted Kinase Detection Solution is added to each well of 96-well plate containing 60 μL of the solution (ratio of kinase reaction volume to ADP-Glo™ Reagent volume to Kinase Detection Solution volume is maintained at 1:1:2). Plate is incubated for 40 minutes on a shaker at rt, protected from light. Luminescence is measured in the plate reader Synergy 2 (BioTek).
Luminescent readouts for compounds tested in 10 concentrations (routinely from 100 μM to […], […] serial dilutions) in duplicates, as well as for positive control, are first normalized to no-substrate negative control by its subtraction. In the next step, % of normalized positive control is calculated for each data point and plotted against test compound concentration:
% of control—percent of positive control normalized to no-substrate negative control Lumcpd—luminescence of test compound Lumneg—luminescence of no-substrate negative control Lumpos—luminescence of positive control
IC50 parameter is determined by the GraphPad Prism 5.0 software [log(inhibitor) vs. response—Variable slope (four parameters)].

Kinetic solubility = type: physicochemical; conditions: phosphate buffer 20 mM pH 7.4, 2% DMSO, room temperature; for solubility kinetic at 120 min: phosphate buffer, pH 7.4, aqueous buffer, kinetic from dmso stock
Experimental: Kinetic solubility of compounds of the present invention were tested according the following procedure.
(a) Buffer Solution Phosphate Buffer 20 mM pH 7.4 is prepared using Sorensen Phosphate Buffer 0.2 M pH 7.4 (EMS) in a 1000 mL volumetric flask (b) 2% DMSO in Phosphate Buffer 20 mM pH 7.4 is prepared by using 1 mL Dimethylsulfoxide (Merck) and 49 ml Sorensen Phosphate Buffer 20 mM pH 7.4 (c) Acetonitrile/Methanole/Eluent A (1:1:2; v/v/v) is prepared by using 50 mL Acetonitrile (Merck), 50 mL Methanol (Merck) and 100 mL Eluent A (d) Eluent A is prepared by using 1 mL Formic Acid (Merck) and 999 mL Ultrapure water (e) Eluent B is prepared by using 1 mL Formic Acid (Merck) and 999 mL Acetonitrile (Merck) (f) Filtration plate: Millipore MultiScreen HTS HV (0.45 μm) 96 Well (Millipore)
98 μL buffer solution (a) is added into a well of a 96 well filtration plate (f). Then 2 μL of 10 mM test compound solution in DMSO (Remp tube) is added. The filtration plate is incubated at room temperature for 120 minutes while agitating at 250 rpm and centrifuged with the PP-Plate (g) as receiver plate below (2500 rpm, 3 min). The 50 μL of filtrate is taken from the receiver plate and mixed with 50 μL of 2% DMSO in buffer pH 7.4 solution (b) (dilution factor=2) in a HPLC Vial (i)+(j).
Standard is prepared by diluting 2 μL of the same 10 mM test compound solution (Remp tube) diluted with 198 μL Acetonitrile/Methanole/Eluent A (1:1:2; v/v/v) (c) to prepare a 100 μM standard solution in a HPLC Vial (i)+(j).
Column temperature: 37° C. Autosampler: room temperature (approx. 25° C.) Gradient programme: […]
Injection volume: 10 μL Wavelength: Suitable wavelength (maximum sensitivity) selected out of wavelength range of 190-400 nm using a DAD detector.
L [μg/mL]=(area sample*concentration standard*dilution factor sample)/(area standard*dilution factor standard)
S [mol/L]=[…] Calculation: […]

[4] = PFKFB IC50, human recombinant PFKFB3 25 nM
[5] = human recombinant PFKFB3 25 nM, read-out: PFKFB IC50

| SMILES | microsomal CLint [1] | microsomal CLint [2] | IC50 [3, 4] | CLint Mouse ([1]; mouse liver microsomes) | CLint Human ([2]; human liver microsomes) | Kinetic solubility (Kinetic solubility; 120 minutes) | IC50 [3, 5] | solubility kinetic at 120 min (Kinetic solubility) |
| --- | --- | --- | --- | --- | --- | --- | --- | --- |
| COc1ccc(C(Nc2cc(-c3ccc4ccn(C)c4c3)c3nccnc3c2)c2cnnn2C)cn1 (racemic) [Comparative Example 1, [(6-Methoxy-pyridin-3-yl)-(3-methyl-3H-[1,2,3]triazol-4-yl)-methyl]-[8-(1-methyl-1H-indol-6-yl)-quinoxalin-6-yl]-amine, reference compound] | 188 µL/min/mg | 163 µL/min/mg | 25 nM | – | – | – | – | – |
| Cn1ccc2ccc(-c3cc(NC(c4cccnc4)c4ccc(=O)[nH]n4)cc4nccnc34)cc21 (single isomer, unassigned) [Example 3] | – | – | – | 92 μl/min/mg prot | 61 μl/min/mg prot | 0.064 mmol/L | 180 nM | – |
| COc1ccc([C@H](Nc2cc(-c3ccc4ccn(C)c4c3)c3nccnc3c2)c2cccnc2)nn1 (single isomer, unassigned) [Example 6] | 134 µL/min/mg | 174 µL/min/mg | – | – | – | – | 900 nM | 18 µM (≈ 8.52 µg/mL) |
| Cn1cc([C@@H](Nc2cc(-c3ccc4ccn(C)c4c3)c3nccnc3c2)c2cnnn2C)cn1 (single isomer, unassigned) [Example 9] | 146 µL/min/mg | 52 µL/min/mg | – | – | – | – | 87 nM | 110 µM (≈ 49.4 µg/mL) |
| Cn1cc([C@@H](Nc2cc(-c3ccc4ccn(C)c4c3)c3nccnc3c2)c2cncn2C)cn1 (single isomer, unassigned) [Example 12] | – | – | – | – | – | – | 44 nM | – |
| Cn1cc([C@H](Nc2cc(-c3ccc4ccn(C)c4c3)c3nccnc3c2)c2nccn2C)cn1 (single isomer, unassigned) [Example 14] | 67 µL/min/mg | 57 µL/min/mg | – | – | – | – | 640 nM | 36 µM (≈ 16.1 µg/mL) |
| Cn1cc([C@@H](Nc2cc(-c3ccc4ccn(C)c4c3)c3nccnc3c2)c2nccn2C)cn1 (single isomer, unassigned) [Example 15] | 88 µL/min/mg | 76 µL/min/mg | – | – | – | – | 560 nM | 48 µM (≈ 21.5 µg/mL) |
| Cn1cc([C@@H](Nc2cc(-c3ccc4ccn(C)c4c3)c3nccnc3c2)c2cccnc2)cn1 (single isomer, unassigned) [Example 17] | 95 µL/min/mg | 172 µL/min/mg | – | – | – | – | 120 nM | 42 µM (≈ 18.7 µg/mL) |
| Cn1cc([C@H](Nc2cc(-c3ccc4ccn(C)c4c3)c3nccnc3c2)c2cccnc2)cn1 (single isomer, unassigned) [Example 18] | 148 µL/min/mg | 142 µL/min/mg | – | – | – | – | 6.5 nM | 39 µM (≈ 17.4 µg/mL) |
| CC(C)[C@@H](Nc1cc(-c2ccc3ccn(C)c3c2)c2nccnc2c1)c1cccnc1 (single isomer, unassigned) [Example 20] | > 500 µL/min/mg | > 500 µL/min/mg | – | – | – | – | 33 nM | 6 µM (≈ 2.45 µg/mL) |
| CC(C)[C@H](Nc1cc(-c2ccc3ccn(C)c3c2)c2nccnc2c1)c1cccnc1 (single isomer, unassigned) [Example 21] | 488 µL/min/mg | 366 µL/min/mg | 23 nM | – | – | – | – | 7 µM (≈ 2.85 µg/mL) |
| Cn1cc([C@@H](Nc2cc(-c3cnc4ccn(C)c4c3)c3nccnc3c2)c2cccnc2)cn1 (single isomer, unassigned) [Example 26] | 58 µL/min/mg | 67 µL/min/mg | – | – | – | – | 1100 nM | 192 µM (≈ 85.7 µg/mL) |
| Cn1cc([C@H](Nc2cc(-c3cnc4ccn(C)c4c3)c3nccnc3c2)c2cccnc2)cn1 (single isomer, unassigned) [Example 27] | 64 µL/min/mg | 404 µL/min/mg | – | – | – | – | 6300 nM | 161 µM (≈ 71.9 µg/mL) |
| Cn1ccc([C@@H](Nc2cc(-c3ccc4ccn(C)c4c3)c3nccnc3c2)c2cnnn2C)n1 (single isomer, unassigned) [Example 29] | 69 µL/min/mg | 51 µL/min/mg | – | – | – | – | 22 nM | 108 µM (≈ 48.5 µg/mL) |
| Cn1ccc([C@H](Nc2cc(-c3ccc4ccn(C)c4c3)c3nccnc3c2)c2cnnn2C)n1 (single isomer, unassigned) [Example 30] | 216 µL/min/mg | 132 µL/min/mg | – | – | – | – | 190 nM | 96 µM (≈ 43.2 µg/mL) |
| COc1ccc([C@H](Nc2cc(-c3ccc4ccn(C)c4c3)c3nccnc3c2)c2cnnn2C)cn1 [Comparative Example 2, N—[(S)-(6-methoxypyridin-3-yl)(1-methyl-1H-1,2,3-triazol-5-yl)methyl]-8-(1-methyl-1H-indol-6-yl)quinoxalin-6-amine, reference compound] | 134 µL/min/mg | 113 µL/min/mg | – | – | – | – | 3.5 nM | 22 µM (≈ 10.5 µg/mL) |
